The test system of series [1] is NCTC clone 929 murine conjunctive cells. As to the kind of experiment: Cytotoxicity against mammalian cells, MTT assay. In kind it is cell-based. The following applies: NCTC clone 929, 48 h at 37°C, highest concentration 200 µM; for CC50: read-out: Cytotoxicity CC50 (C.I.95%). The procedure:
(§1) L. (L.) infantum (MHOM/BR/1972/LD) promastigotes were maintained in M-199 medium supplemented with 10% fetal bovine serum (FBS) and 0.25% hemin at 24°C. L. (L.) infantum was maintained in golden hamsters for up to approximately 60–70 days post-infection. The amastigotes were obtained from the spleens of previously infected hamsters by differential centrifugation. The macrophages were collected from the peritoneal cavity of BALB/c mice by washing with RPMI-1640 (without phenol red and supplemented with 10% FBS). NCTC (clone 929) murine conjunctive cells were maintained in RPMI-1640 (without phenol red and supplemented with 10% FBS) at 37°C in a humidified containing 5% CO2.
(§2) NCTC cells were seeded at 6×10^4 cells/well in 96-well microplates at 37°C in a 5% CO2. The mammalian cells were incubated with tested compounds to the highest concentration of 200 µM for 48 h at 37°C, using miltefosine as standard drug. The viability of the cells was determined by MTT assay at 570 nm. The selectivity index (SI) was determined considering the following equation: CC50 NCTC cells/IC50 amastigotes.
(§3) The obtained data represent the mean and standard deviation of two independent experiments performed in duplicate. The IC50 and CC50 values were calculated using sigmoid dose-response curves performed using GraphPad Prism version 5.0 (GraphPad Software, San Diego, CA, USA), and the 95% confidence intervals (95% CI) were included. The ANOVA test was performed to evaluate the significance (p<0.05) of data.

Series [2] concerns intracellular L. (L.) infantum amastigotes. The experiment in a line: Activity against intracellular amastigotes in infected macrophages, Giemsa counting. The class given is cell-based, Leishmania (L.) infantum. The settings on record: for IC50 / Amastigotes IC50 (C.I.95%): BALB/c peritoneal macrophages infected with amastigotes, 120 h at 37°C, na = not active; for IC50: read-out: Amastigotes IC50 (C.I.95%). The procedure: as §1
The activity against intracellular L. (L.) infantum amastigotes was determined in infected macrophages. Macrophages were obtained as previously described and seeded for 24 h at 1×10^5 cells/well in 16-well slide chambers (Nunc). Amastigotes were isolated from the spleens of previously infected hamsters, separated by differential centrifugation and added to the macrophages at a ratio of 1∶10 (macrophage/amastigotes) for 24 h at 37°C. Non-internalized parasites were removed by washing once with medium and the cells were then incubated with the test compounds for 120 h at 37°C in 5% CO2, using miltefosine as standard drug. At the end of the assay, the cells were fixed in methanol, stained with Giemsa and observed under a light microscope to determine the number of intracellular parasites. The number of amastigotes was determined in 400 macrophages from the drug-treated and control wells [15].
as §3

Series [3] deals with L. (L.) infantum promastigotes. The experiment in a line: Antileishmanial activity against promastigotes, MTT assay. The class given is cell-based, Leishmania (L.) infantum. The settings on record: 48 h at 24°C, highest concentration 200 µM, na = not active, read-out: Promastigotes IC50 (C.I.95%). The procedure: as §1
Promastigotes were counted in a Neubauer hemocytometer and seeded at 1×10^6 cells per well in 96-well microplates using miltefosine as standard drug. The tested compounds were incubated at the highest concentration of 200 µM for 48 h at 24°C. Parasite viability was determined using the MTT assay. Briefly, 3-[4,5-dimethylthiazol-2-yl]-2,5-diphenyltetrazolium bromide (MTT) was dissolved in phosphate-buffered saline (PBS) at 5 mg/mL, sterilized through 0.22 µm membranes and incubated with cells (20 µL/well) for 4 h at 24°C. The extraction of the mitochondrial formazan was done with 80 µL of 10% SDS for 18 h at 24°C. The optical density was determined in FilterMax F5 (Molecular Devices) at 570 nm. Promastigotes incubated without compounds were used as the viability control (100% viability) and without cells (blank).
as §3

Series [4] in a line: Cytotoxicity against mammalian cells, MTT assay. In kind it is cell-based, murine. The settings on record: mouse, NCTC clone 929 murine conjunctive cells, NCTC clone 929, 48 h at 37°C, highest concentration 200 µM, read-out: Cytotoxicity CC50 (C.I.95%). How it is done: as §1, §2, §3
For orientation: Tetrazolium assays rely on reduction of a dye to a coloured formazan, in cell work by metabolically active cells.

Read-outs that look alike come from different tables or passages of the source.

Broadly, the CC50 is the concentration at which the toxic effect on the cells reaches its halfway point. In general, IC50 refers to the concentration needed to halve the response being measured. As for `CCCSCC1=C(O)C(=O)c2ccccc2C1=O` [Compound 9], the “Cytotoxicity CC50 (C.I.95%)” value in series [1] is given as “lack of toxicity”. Besides, the CC50 in series [1] is > 200 µM. The half-inhibitory concentration (IC50) in series [2] and in series [3] was > 200 µM throughout.

As for `CCCSC(C1=C(O)C(=O)c2ccccc2C1=O)c1ccccc1` (stereo not drawn) [Compound 24], in series [1], the “Cytotoxicity CC50 (C.I.95%)” value was “lack of toxicity” and the CC50 was > 200 µM. The IC50 in series [2] was > 200 µM. Also, the IC50 in series [3] is > 200 µM.

For `O=C1C(O)=C(C(Sc2ccc3ccccc3c2)c2ccc([N+](=O)[O-])cc2)C(=O)c2ccccc21` (stereo not drawn) [Compound 36], the CC50 in series [1] is 58.2 µM. Besides, the half-maximal inhibitory concentration (IC50) in series [2] and in series [3] was > 200 µM each time.

For `O=C1C(O)=C(C(Sc2ccccc2)c2ccc([N+](=O)[O-])cc2)C(=O)c2ccccc21` (stereo not drawn) [Compound 28], in series [1], the CC50 amounted to 94.2 µM. Moreover, in series [2], the “Amastigotes IC50 (C.I.95%)” value is reported as “no activity”. In addition, in series [3], the IC50 was found to be 40.1 µM.

As for `CCCSC(C1=C(O)C(=O)c2ccccc2C1=O)c1ccc([N+](=O)[O-])cc1` (stereo not drawn) [Compound 35], the half-maximal cytotoxic concentration (CC50) in series [1] was found to be 75.1 µM. Further, the IC50 in series [2] and in series [3] was > 200 µM each time.

Consider `O=C1C(O)=C(CSc2ccccc2)C(=O)c2ccccc21` [Compound 2], for which, in series [1], the CC50 amounted to 84.7 µM. In addition, the “Amastigotes IC50 (C.I.95%)” value in series [2] was “no activity”. The IC50 in series [3] stood at 124 µM.

`Cc1ccc(SC(C2=C(O)C(=O)c3ccccc3C2=O)c2ccc([N+](=O)[O-])cc2)cc1` (stereo not drawn) [Compound 25]: in series [1], the CC50 came to 42.6 µM. Also, in series [2], the “Amastigotes IC50 (C.I.95%)” value is recorded as “no activity”. For the same compound, in series [3], the IC50 was 108 µM.

As to `Cc1cccc(SCC2=C(O)C(=O)c3ccccc3C2=O)c1` [Compound 14], in series [1], the “Cytotoxicity CC50 (C.I.95%)” value is recorded as “lack of toxicity” and the cytotoxic concentration (CC50) was > 200 µM. Moreover, the IC50 in series [2] was > 200 µM. For the same compound, the IC50 in series [3] was > 200 µM.

In the case of `Cc1ccccc1SCC1=C(O)C(=O)c2ccccc2C1=O` [Compound 13], in series [1], the “Cytotoxicity CC50 (C.I.95%)” value is “lack of toxicity” and the CC50 was > 200 µM. In series [2], the 50% inhibitory concentration (IC50) was > 200 µM. For the same compound, in series [3], the IC50 was > 200 µM.

`COc1ccc(SCC2=C(O)C(=O)c3ccccc3C2=O)cc1` [Compound 3]: the CC50 in series [1] was determined as 92.6 µM. In series [2], the “Amastigotes IC50 (C.I.95%)” value is on record as “no activity”. The IC50 in series [3] came to 75 µM.

As to `O=C1C(O)=C(CSc2ccc3ccccc3c2)C(=O)c2ccccc21` [Compound 15], in series [1], the “Cytotoxicity CC50 (C.I.95%)” value is “lack of toxicity” and the CC50 is > 200 µM. The IC50 in series [2] was > 200 µM. Further, the IC50 in series [3] is > 200 µM.

On to `O=C1C(O)=C(CSc2ccc([N+](=O)[O-])cc2)C(=O)c2ccccc21` [Compound 7], for which the CC50 in series [1] came out at 85.5 µM. The “Amastigotes IC50 (C.I.95%)” value in series [2] is recorded as “no activity”. Moreover, the IC50 in series [3] was found to be 8.44 µM.

In the case of `CCCCCCCCCCCCCCCCOP(=O)([O-])OCC[N+](C)(C)C` [miltefosine, reference compound], the CC50 at 48 h in series [4] was determined as 122 µM. The “S.I. selectivity index (CC50 mammalian cells/IC50 amastigotes)” value in series [2] (CC50 NCTC cells/IC50 amastigotes) came out at 6.85. Besides, the IC50 in series [2] (Leishmania infantum, Peritoneal macrophage, in Mus musculus) was determined as 17.8 µM; in series [3] (Leishmania infantum), 16.9 µM.

Turning to `O=C1C(O)=C(C(Sc2ccc([N+](=O)[O-])cc2)c2ccccc2)C(=O)c2ccccc21` (stereo not drawn) [Compound 19], the CC50 in series [1] amounted to 69.5 µM. Also, in series [2], the “Amastigotes IC50 (C.I.95%)” value is reported as “no activity”. Moreover, in series [3], the IC50 came out at 9.06 µM.

On to `Cc1ccccc1SC(C1=C(O)C(=O)c2ccccc2C1=O)c1ccc([N+](=O)[O-])cc1` (stereo not drawn) [Compound 34], for which the half-maximal cytotoxic concentration (CC50) in series [1] amounted to 96 µM. The “Amastigotes IC50 (C.I.95%)” value in series [2] is reported as “no activity”. Further, the IC50 in series [3] worked out at 82.9 µM.

Take `CSc1ccc(SCC2=C(O)C(=O)c3ccccc3C2=O)cc1` [Compound 6]: in series [1], the CC50 came to 100 µM. The “Amastigotes IC50 (C.I.95%)” value in series [2] was “no activity”. Moreover, the IC50 in series [3] is 188 µM.

For the compound `O=C1C(O)=C(CSc2ccc(F)cc2)C(=O)c2ccccc21` [Compound 5], in series [1], the CC50 came out at 97.9 µM. Besides, in series [2], the “Amastigotes IC50 (C.I.95%)” value was “no activity”. Also, in series [3], the IC50 is 129 µM.

With `O=C1C(O)=C(CSc2ccc(Cl)cc2)C(=O)c2ccccc21` [Compound 4], the CC50 in series [1] came out at 82.2 µM. The “Amastigotes IC50 (C.I.95%)” value in series [2] is given as “no activity”. Also, the IC50 in series [3] amounted to 85.4 µM.

With `Cc1ccc(SCC2=C(O)C(=O)c3ccccc3C2=O)cc1` [Compound 1], the CC50 in series [1] worked out at 89.1 µM. For the same compound, the concentration for half-maximal inhibition (IC50) in series [2] and in series [3] was > 200 µM throughout.

With `Cc1cccc(SC(C2=C(O)C(=O)c3ccccc3C2=O)c2ccccc2)c1` (stereo not drawn) [Compound 20], the CC50 in series [1] was found to be 138 µM. The IC50 amounted to 14.7 µM in series [2] and 26.4 µM in series [3].

Values taken from publication PMC4149375, “Potential of 2-Hydroxy-3-Phenylsulfanylmethyl-[1,4]-Naphthoquinones against Leishmania (L.) infantum: Biological Activity and Structure-Activity Relationships” (PLoS ONE, 2014).
